Results: ChEMBL document CHEMBL1158321, “In vitro anti-HIV activity of biflavonoids isolated from Rhus succedanea and Garcinia multiflora” (J Nat Prod, 1997)

Key:
[1] = target: Human immunodeficiency virus type 1 reverse transcriptase (Human immunodeficiency virus 1) (UniProt Q72547); assay: Inhibition of HIV1 recombinant reverse transcriptase p66/p51 expressed in Escherichia coli at 200 ug/mL
[2] = target: Human immunodeficiency virus type 1 reverse transcriptase (Human immunodeficiency virus 1, UniProt Q72547); assay: (§1) Inhibition of HIV1 recombinant reverse transcriptase p66/p51 expressed in Escherichia coli
[3] = system: Human immunodeficiency virus 1; assay: Antiviral activity against HIV1 LAV-1 in PHA-stimulated human PBMC after 6 days; type: functional, organism-based; conditions: Human immunodeficiency virus 1, LAV-1, 144 h
[4] = Selectivity index, ratio of IC50 for human PBMC to EC50 for HIV1 LAV-1
PBMC = assay: Cytotoxicity against uninfected PHA-stimulated human PBMC assessed as thymidine incorporation after 24 hrs […]; type: cell-based
[5] = target: Human immunodeficiency virus type 1 reverse transcriptase (Human immunodeficiency virus 1) (UniProt Q72547); assay: as §1; design: concentration or dose not given beside the values; conditions: concentration not given here

| SMILES | inhibition [1] [%] | IC50 [2] [µM] | EC50 [3] [µM] | Selectivity Index [4] | IC50 (PBMC) [µM] | inhibition [5] [%] |
| --- | --- | --- | --- | --- | --- | --- |
| O=c1cc(-c2ccc(O)cc2)oc2cc(O)cc(O)c12 [APIGENIN] | 72 | 443 |  |  |  |  |
| O=c1cc(-c2ccc(Oc3c(O)cc4oc(-c5ccc(O)cc5)cc(=O)c4c3O)cc2)oc2cc(O)cc(O)c12 [HINOKIFLAVONE] | 89.9 | 62 | 4.1 | 2.2 | 9 |  |
| Cc1cn([C@H]2C[C@H](N=[N+]=[N-])[C@@H](CO)O2)c(=O)[nH]c1=O [ZIDOVUDINE] |  |  |  | >10 | > 100 |  |
| O=c1cc(-c2ccc(O)c(-c3c(O)cc(O)c4c(=O)cc(-c5ccc(O)cc5)oc34)c2)oc2cc(O)cc(O)c12 [AMENTOFLAVONE] | 97.3 | 119 | 94 | <1 | 35 |  |
| COc1ccc([C@@H]2CC(=O)c3c(OC)cc(OC)c([C@H]4C(=O)c5c(OC)cc(OC)cc5O[C@@H]4c4ccc(OC)cc4)c3O2)cc1 | 0 |  |  |  |  |  |
| O=C1c2c(O)cc(O)cc2O[C@H](c2ccc(O)cc2)[C@H]1c1c(O)cc(O)c2c(=O)cc(-c3ccc(O)c(O)c3)oc12 [MORELLOFLAVONE] | 99.2 | 116 | 6.9 | 12 | 82 |  |
| O=c1cc(-c2ccc(O)c(-c3c(O)cc4oc(-c5ccc(O)cc5)cc(=O)c4c3O)c2)oc2cc(O)cc(O)c12 [ROBUSTAFLAVONE] | 91.4 | 65 | > 100 | <1 | 77 |  |
| Cc1ccc([C@@H]2CC(=O)c3c(cc(O)c(-c4c(O)cc(O)c5c4O[C@H](c4ccc(O)cc4)CC5=O)c3O)O2)cc1 | 14.1 |  |  |  |  | < 30 |
| O=C1C[C@@H](c2ccc(O)cc2)Oc2cc(O)cc(O)c21 | 34.9 |  |  |  |  | 30 |
| O=C1C[C@@H](c2ccc(O)cc2)Oc2c1c(O)cc(O[C@@H]1O[C@H](CO)[C@@H](O)[C@H](O)[C@H]1O)c2[C@H]1C(=O)c2c(O)cc(O)cc2O[C@@H]1c1ccc(O)cc1 | 1.5 |  |  |  |  |  |
| O=C1c2c(O)cc(O)cc2O[C@@H](c2ccc(O)cc2)[C@@H]1c1c(O)cc(O)c2c(=O)cc(-c3ccc(O)cc3)oc12 | 45.3 |  |  |  |  | 30 |
| COc1ccc([C@@H]2Oc3cc(OC)cc(OC)c3C(=O)[C@H]2c2c(OC)cc(OC)c3c(=O)cc(-c4ccc(OC)c(OC)c4)oc23)cc1 | 0 |  |  |  |  | < 30 |
| O=C1C[C@@H](c2ccc(O)cc2)Oc2c1c(O)cc(O)c2[C@H]1C(=O)c2c(O)cc(O)cc2O[C@@H]1c1ccc(O)cc1 | 86 | 236 | 38 | 2.3 | 88 |  |
| COc1ccc(-c2cc(=O)c3c(OC)cc(OC)c([C@@H]4C(=O)c5c(OC)cc(OC)cc5O[C@H]4c4ccc(OC)cc4)c3o2)cc1 | 0 |  |  |  |  | < 30 |
| O=C1C[C@@H](c2ccc(O)c(O)c2)Oc2c1c(O)cc(O)c2[C@H]1C(=O)c2c(O)cc(O)cc2O[C@@H]1c1ccc(O)cc1 | 96 | 170 |  |  |  |  |
| O=C1C[C@@H](c2ccc(O)cc2)Oc2cc(O)c(-c3c(O)cc4c(c3O)C(=O)C[C@@H](c3ccc(O)cc3)O4)c(O)c21 | 22.1 |  |  |  |  | < 30 |
